Here are results for one compound from publication PMC7317212 (Chemmedchem, 2020).

In general, IC50 refers to the midpoint of a concentration-inhibition curve. In general, remaining activity refers to what remains of the control signal, in per cent.

Common to all, as to type: cell-based
One experiment has as its target T1, mGAT3 (Mus musculus, UniProt P31649).
T1 construct: expressed in transfected cells; host or cells: HEK293
T1 sequence (P31649 1-602): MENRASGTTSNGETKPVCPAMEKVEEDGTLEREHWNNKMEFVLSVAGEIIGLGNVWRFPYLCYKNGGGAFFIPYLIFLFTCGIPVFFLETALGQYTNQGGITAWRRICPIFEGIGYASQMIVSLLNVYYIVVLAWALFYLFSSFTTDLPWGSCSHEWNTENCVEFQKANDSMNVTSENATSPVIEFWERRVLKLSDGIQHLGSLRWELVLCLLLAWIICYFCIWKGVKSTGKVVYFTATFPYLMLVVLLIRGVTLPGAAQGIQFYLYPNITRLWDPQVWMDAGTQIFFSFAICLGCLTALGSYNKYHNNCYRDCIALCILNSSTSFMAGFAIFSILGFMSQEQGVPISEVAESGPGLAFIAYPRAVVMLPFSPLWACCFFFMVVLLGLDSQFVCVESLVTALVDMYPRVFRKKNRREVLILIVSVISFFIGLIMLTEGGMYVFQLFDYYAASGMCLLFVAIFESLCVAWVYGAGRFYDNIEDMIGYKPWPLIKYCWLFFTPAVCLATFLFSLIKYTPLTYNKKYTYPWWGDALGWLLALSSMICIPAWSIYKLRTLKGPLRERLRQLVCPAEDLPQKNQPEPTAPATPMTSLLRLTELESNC
Description: [^3H]GABA uptake assay, HEK293 cells expressing mGAT3. The following applies: [^3H]GABA uptake; pIC50±SEM. Put shortly:
(§1)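 HEK293 cells expressing mouse GATs preincubated 25 min at 37 °C with compound in Krebs buffer pH 7.2, then [3H]GABA added: 8 nM plus 32 nM unlabeled for 4 min (mGAT1/3/4), 20 nM plus 20 nM for 10 min (mGAT2). Filtration, scintillation counting; nonspecific uptake with 10 mM (mGAT1/3/4) or 100 mM GABA (mGAT2); pIC50.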

Another experiment addresses T2, mGAT4 (Mus musculus, UniProt P31650).
T2 construct: expressed in transfected cells; host or cells: HEK293
T2 sequence (P31650 1-627): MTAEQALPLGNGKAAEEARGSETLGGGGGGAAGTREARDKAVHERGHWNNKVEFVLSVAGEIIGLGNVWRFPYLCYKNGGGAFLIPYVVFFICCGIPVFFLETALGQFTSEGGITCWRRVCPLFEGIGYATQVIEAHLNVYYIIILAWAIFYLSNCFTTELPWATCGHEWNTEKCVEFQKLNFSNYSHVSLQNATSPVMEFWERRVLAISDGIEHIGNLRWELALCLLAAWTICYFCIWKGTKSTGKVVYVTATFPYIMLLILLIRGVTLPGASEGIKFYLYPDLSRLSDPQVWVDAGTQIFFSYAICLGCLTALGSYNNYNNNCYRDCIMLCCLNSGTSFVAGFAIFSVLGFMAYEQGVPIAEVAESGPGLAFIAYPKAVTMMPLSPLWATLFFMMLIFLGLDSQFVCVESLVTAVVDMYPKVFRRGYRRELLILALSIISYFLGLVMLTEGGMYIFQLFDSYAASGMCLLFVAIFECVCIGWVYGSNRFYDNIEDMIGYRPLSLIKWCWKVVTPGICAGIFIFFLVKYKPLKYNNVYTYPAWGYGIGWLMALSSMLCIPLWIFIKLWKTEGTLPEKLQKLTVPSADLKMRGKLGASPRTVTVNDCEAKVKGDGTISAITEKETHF
Briefly: [^3H]GABA uptake assay, HEK293 cells expressing mGAT4. Conditions: [^3H]GABA uptake; pIC50±SEM. In outline:
as §1

For a further experiment, the target named is T3, mGAT2 (Mus musculus, UniProt P31651).
T3 construct: expressed in transfected cells; host or cells: HEK293
T3 sequence (P31651 1-614): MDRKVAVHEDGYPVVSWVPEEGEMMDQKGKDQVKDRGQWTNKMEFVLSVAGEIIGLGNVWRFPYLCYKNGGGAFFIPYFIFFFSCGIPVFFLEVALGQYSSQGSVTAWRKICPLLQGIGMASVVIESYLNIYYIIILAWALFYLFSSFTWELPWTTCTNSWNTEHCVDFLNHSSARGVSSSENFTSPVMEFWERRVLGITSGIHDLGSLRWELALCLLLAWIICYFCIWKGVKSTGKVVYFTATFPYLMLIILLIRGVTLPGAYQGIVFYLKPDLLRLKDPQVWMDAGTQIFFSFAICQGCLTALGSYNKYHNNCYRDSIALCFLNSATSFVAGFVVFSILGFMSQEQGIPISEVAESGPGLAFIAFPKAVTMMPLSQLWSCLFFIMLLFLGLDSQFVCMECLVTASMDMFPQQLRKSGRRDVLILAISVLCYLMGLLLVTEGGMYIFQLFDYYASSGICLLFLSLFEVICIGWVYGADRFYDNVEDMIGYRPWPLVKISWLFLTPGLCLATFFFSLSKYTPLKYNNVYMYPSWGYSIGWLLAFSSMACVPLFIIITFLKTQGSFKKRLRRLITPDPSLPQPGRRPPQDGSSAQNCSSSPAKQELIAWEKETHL
Briefly: [^3H]GABA uptake assay, HEK293 cells expressing mGAT2. Conditions: HEK293; in presence of 100 μM compound. In outline:
as §1

Consider `COc1ccc(C(OCCN2CCCC(C(=O)O)C2)(c2ccc(C=O)cc2)c2ccc(OC)cc2)cc1` (racemic) [5 a, rac‐ 1‐{2‐[(4‐Formylphenyl)bis(4‐methoxyphenyl)methoxy]ethyl}piper‐idine‐3‐carboxylic acid], for which the IC50 is 10.5 µM against mGAT3 and 1.7 µM against mGAT4. Moreover, on mGAT2, the remaining activity at 100 µM turned out to be 66.3%.
